Experimental data taken from patent US12692253B2, “Antimicrobial compounds and methods” (Curza Global, LLC, priority 2019, dated 2026).

How the values were obtained:
[1] = test system: E. coli S30 extract (bacterial protein synthesis); experiment: E. coli S30 extract coupled transcription-translation luciferase assay (inhibition of bacterial protein synthesis); type: biochemical; conditions: class by IC50 or % inhibition @ 1 μM, read-out: S30 IC50 (μM/% inhib.)
Protocol: E. coli S30 extract: Inhibition of bacterial protein synthesis was determined using the E. coli S30 Extract System for Circular DNA (Promega catalog #L-2010) and Luciferase Assay Reagent (Promega catalog #E1500) with slight modifications to a published protocol. Fyfe, C., Sutcliffe, J. A. and Grossman, T. H. (2012) “Development and characterization of a Pseudomonas aeruginosa in vitro coupled transcription-translation assay system for evaluation of translation inhibitors” J. Microbiol. Methods 90(3), 256-261.
Compounds were serial diluted in 0.5 mL microcentrifuge tubes by mixing and transferring 50 μL from the highest concentration to 50 μL of water, mixing and transferring 50 μL of this 2-fold dilution to 50 μL of water. This mixing and transferring was repeated so that there are a total of 8 tubes with serial dilutions of compound at 10× the desired screening concentration that are ultimately diluted to 1× by the addition of S30 luciferase synthesis mixture. Serial dilutions of compounds were added (2 μL) to wells in a black round bottom 96-well plate. Water (2 μL) was used as a “no inhibitor” control in 4 wells/plate. No DNA control reaction mixture (20 μL; see below) was used as a control in 4 wells/plate for background luminescence. S30 luciferase synthesis mixture (18 μL; see below) was added to wells with compounds or water mixture and incubated at 37° C. for 1 hour. Reactions were stopped by transferring to 4° C. refrigerator for 5 minutes then 25 μL of luciferase activity mix was added. Luminescence was measured using a BioTek Synergy HTX plate reader. % Inhibition was determined relative to no inhibitor controls. • S30 luciferase synthesis mixture: • 445 μL S30 extract, circular • 712 μL S30 Premix without amino acids • 4.45 μL pBESTluc™ DNA (1 μg/μL) • 78 μL complete amino acid mixture • 267 μL water • No DNA control: • 20 μL S30 extract, circular • 32 μL S30 Premix without amino acids • 7 μL complete amino acid mixture • 21 μL water Rabbit Reticulocyte lysate

[2] = biological target: Rabbit Reticulocyte Lysate (eukaryotic protein synthesis); experiment: Rabbit reticulocyte lysate luciferase assay (inhibition of eukaryotic protein synthesis); type: biochemical; conditions: class by IC50 or % inhibition @ 1 μM, read-out: Rabbit reticulocyte IC50 (μM/% inhib.)
Protocol: Inhibition of eukaryotic protein synthesis was determined using the Rabbit Reticulocyte Lysate System, Nuclease-Treated from Promega (catalog #L-4960) with slight modifications to the manufacturer's protocol. Compounds were serial diluted in 0.5 mL microcentrifuge tubes by mixing and transferring 50 μL from the highest concentration to 50 μL of water, mixing and transferring 50 μL of this 2-fold dilution to 50 μL of water. This mixing and transferring was repeated so that there are a total of 8 tubes with serial dilutions of compound at 10× the desired screening concentration that are ultimately diluted to 1× by the addition of rabbit reticulocyte luciferase synthesis mixture. Serial dilutions of compounds were added (2.5 μL) to wells in a black round bottom 96-well plate. Water (2.5 μL) was used as a “no inhibitor” control in 4 wells/plate. No RNA control reaction mixture (2 μL; see below) was used as a control in 4 wells/plate for background luminescence. Rabbit reticulocyte luciferase synthesis mixture (22.5 μL; see below) was added to wells with compounds or water mixture and incubated at 30° C. for 90 minutes. Luciferase assay reagent (25 μL) was added with luminescence measured using a BioTek Synergy HTX plate reader. % Inhibition was determined relative to no inhibitor controls.
Rabbit Reticulocyte Luciferase Synthesis Mixture:
• 1,000 μL rabbit reticulocyte lysate • 5.7 μL Luciferase Control RNA (1 μg/μL) • 26 μL complete amino acid mixture • 395 μL water • No RNA Control • 70 μL rabbit reticulocyte lysate • 2 μL complete amino acid mixture • 28 μL water Minimum Inhibitory Concentration (MIC)

[3] = test system: E. coli (Ec); experiment: Broth microdilution minimum inhibitory concentration (MIC), CLSI; type: cell-based; conditions: Escherichia coli, growth medium supplemented with sodium bicarbonate, read-out: E. coli + bicarb MIC
Protocol: A certified BSL-2 laboratory was used for testing. Compounds were evaluated using the broth microdilution minimum inhibitory concentration (MIC) and minimum bactericidal concentration (MBC) assays defined by Clinical and Laboratory Standards Institute (CLSI) in the M26-A guideline against S. aureus (Sa), E. coli (Ec), K. pneumoniae (Kp), A. baumannn (Ab), E. faecalis (Ef) and P. aeruginosa (Pa).
MICs were determined using the Clinical Laboratory and Standards Institute (CLSI) Broth Microdilution Method with slight modification. Clinical and Laboratory Standards Institute (2012). “Methods for dilution antimicrobial susceptibility tests for bacteria that grow aerobically; approved standard, 9th ed. M07-A9 Clinical and Laboratory Standards Institute, Wayne, PA” Serial two-fold dilutions of compounds are prepared in sterile clear round-bottom 96-well plates.
To prepare microdilution trays, two-fold dilutions of antimicrobial agent are prepared in growth medium: Cation-Adjusted Mueller-Hinton Broth (CAMHB), or CAMHB supplemented with sodium bicarbonate (6.25 or 25 mM final concentration prepared from a 1.0M stock solution) or CAMHB supplemented with heat inactivated human serum (Fisher Cat. #BP2657100) 0-50% by adding 200 µL of the highest concentration to be tested (64 μg/mL, for example) in row A, mixing and transferring 100 μL from row A to 100 μL growth medium in row B, then repeating the mixing and transferring through row H of the 96-well plate, discarding the excess […] remaining. This slight modification to the CLSI protocol enables evaluation of MICs for 3 compounds per plate in triplicate, albeit with only 8 compound dilutions (CLSI protocol enables 2 compounds in triplicate with 10 dilutions). Bacterial suspensions are added to a final concentration of 5×10^4 CFU/well by adding 5 μL of a 1:10 dilution of a 0.5 McFarland suspension (1×10^8 CFU/mL) for each bacterium evaluated. Bacterial suspensions were prepared using the growth method described by CLSI. Well-isolated colonies (3-5 from an agar plate) were selected using a sterile loop and used to inoculate a tube containing 4 mL of CAMHB. The cultures are incubated at 35±2° C. until it achieves or exceeds the turbidity of the 0.5 McFarland standard, determined by measuring A600 (usually two to six hours). When growth exceeds a 0.5 McFarland standard, the turbidity is adjusted with broth to be equivalent to a 0.5 McFarland standard.

SMILES | IC50 [1] [µM] | IC50 [2] [µM] | MIC [3] [µg/mL]
Cc1cc(-n2ccc(NC(=O)N3CCN(C(=O)[C@@](C)(N)CO)CC3)nc2=O)ccc1CN1C[C@@H]2[C@@H](N)[C@@H]2C1 [Compound 1] | < 0.5 | ≥ 1 | –
CC(C)(N)C(=O)N1CCN(C(=O)Nc2ccn(-c3cc(CN4C[C@@H]5[C@@H](N)[C@@H]5C4)cc(C(F)(F)F)c3)c(=O)n2)CC1 [Compound 5] | ≥ 1 | ≥ 1 | –
CC(C)(N)C(=O)N1CCN(C(=O)Nc2ccn(-c3ccc(CN4C[C@@H]5[C@@H](N)[C@@H]5C4)c(C(F)(F)F)c3)c(=O)n2)CC1 [Compound 6] | ≥ 1 | ≥ 1 | –
CC(C)(N)C(=O)N1CCN(C(=O)Nc2ccn(-c3cc(F)c(CN4C[C@@H]5[C@@H](N)[C@@H]5C4)c(F)c3)c(=O)n2)CC1 [Compound 8] | ≥ 1 | – | > 32
CC(C)(N)CC(=O)N1CCN(C(=O)Nc2ccn(-c3ccc(CN4C[C@@H]5[C@@H](N)[C@@H]5C4)c(C(F)(F)F)c3)c(=O)n2)CC1 [Compound 9] | ≥ 1 | – | > 32
CCOC(=O)C(c1ccc(-n2ccc(NC(=O)N3CCN(C(=O)C(C)(C)N)CC3)nc2=O)cc1)N1C[C@@H]2[C@@H](N)[C@@H]2C1 (some centres unmarked) [Compound 10] | ≥ 1 | ≥ 1 | –
C[C@](N)(CO)C(=O)N1CCN(C(=O)Nc2ccn(-c3ccc(CN4C[C@@H]5[C@@H](N)[C@@H]5C4)c(C(F)(F)F)c3)c(=O)n2)CC1 [Compound 11] | ≥ 1 | ≥ 1 | –
CC(N)(C(=O)N1CCN(C(=O)Nc2ccn(-c3ccc(CN4C[C@@H]5[C@@H](N)[C@@H]5C4)cc3)c(=O)n2)CC1)C(F)(F)F (some centres unmarked) [Compound 15] | ≥ 1 | – | > 32
CC(C)(N)C(=O)N1CCN(C(=O)Nc2ccn(-c3ccc(CN4CCC5(CC5N)C4)cc3)c(=O)n2)CC1 (centres unmarked) [Compound 22] | < 0.5 | ≥ 1 | –
CC(C)(N)C(=O)N1CCCN(C(=O)Nc2ccn(-c3ccc(CN4C[C@@H]5[C@@H](N)[C@@H]5C4)cc3)c(=O)n2)CC1 [Compound 26] | ≥ 1 | – | < 8
NC[C@H](N)C(=O)N1CCN(C(=O)Nc2ccn(-c3ccc(CN4C[C@@H]5[C@@H](N)[C@@H]5C4)cc3)c(=O)n2)CC1 [Compound 43] | ≥ 1 | ≥ 1 | –
C[C@](N)(CN)C(=O)N1CCN(C(=O)Nc2ccn(-c3ccc(CN4C[C@@H]5[C@@H](N)[C@@H]5C4)cc3)c(=O)n2)CC1 [Compound 44] | ≥ 1 | ≥ 1 | –
CC(C)(N)C(=O)N1CCN(C(=O)Nc2ccn(-c3ccc(CN4CCC5(CCC(N)CC5)CC4)cc3)c(=O)n2)CC1 [Compound 55] | < 0.5 | ≥ 1 | –
CC(C)(N)C(=O)N1CCN(C(=O)Nc2ccn(-c3ccc(CN4C[C@@H]5[C@@H](N)[C@@H]5C4)nc3)c(=O)n2)CC1 [Compound 57] | ≥ 1 | ≥ 1 | –
NC[C@@H]1[C@H]2CN(Cc3ccc(-n4ccc(NC(=O)N5CCN(C(=O)C6(CN)CC6)CC5)nc4=O)cc3)C[C@@H]12 [Compound 70] | ≥ 1 | – | < 8
CC(C)(N)C(=O)N1CCN(C(=O)Nc2ccn(-c3ccc(CN4CCN5CCNCC5C4)cc3)c(=O)n2)CC1 (centres unmarked) [Compound 78] | ≥ 1 | ≥ 1 | –
CC(C)(N)C(=O)N1CCN(C(=O)Nc2ccn(-c3ccc(CN4C[C@@H]5CN[C@@H]5C4)cc3)c(=O)n2)CC1 [Compound 79] | ≥ 1 | ≥ 1 | –
CC(C)(N)C(=O)N1CCN(C(=O)Nc2ccn(-c3ccc(CCN4C[C@@H]5[C@@H](N)[C@@H]5C4)cc3)c(=O)n2)CC1 [Compound 84] | ≥ 1 | – | > 32
CC(C)(N)C(=O)N1CCN(C(=O)Nc2ccn(-c3cccc(CCN4C[C@@H]5[C@@H](N)[C@@H]5C4)c3)c(=O)n2)CC1 [Compound 86] | ≥ 1 | ≥ 1 | –
N[C@@H]1[C@H]2CN(CCc3cccc(-n4ccc(NC(=O)N5CCNCC5)nc4=O)c3)C[C@@H]12 [Compound 87] | ≥ 1 | ≥ 1 | –
N[C@@H]1[C@H]2CN(CCc3cccc(-n4ccc(NC(=O)N5CCN(C(=O)C6(N)CCC6)CC5)nc4=O)c3)C[C@@H]12 [Compound 88] | ≥ 1 | ≥ 1 | –
CC(C)(N)C(=O)N1CCN(C(=O)Nc2ccn(-c3ccc(CCN4C[C@@H]5[C@H](N)[C@@H]5C4)cc3)c(=O)n2)CC1 [Compound 90] | ≥ 1 | ≥ 1 | –
CC(C)(N)C(=O)N1CCN(C(=O)Nc2ccn(-c3ccc(CCN4CC5(CC(N)C5)C4)cc3)c(=O)n2)CC1 [Compound 92] | < 0.5 | ≥ 1 | –
CC(CN1C[C@@H]2[C@@H](N)[C@@H]2C1)c1ccc(-n2ccc(NC(=O)N3CCN(C(=O)C(C)(C)N)CC3)nc2=O)cc1 (some centres unmarked) [Compound 97] | ≥ 1 | ≥ 1 | –
CC(Cc1ccc(-n2ccc(NC(=O)N3CCN(C(=O)C(C)(C)N)CC3)nc2=O)cc1)N1C[C@@H]2[C@@H](N)[C@@H]2C1 (some centres unmarked) [Compound 98] | ≥ 1 | ≥ 1 | –
COc1cc(-n2ccc(NC(=O)N3CCN(C(=O)C(C)(C)N)CC3)nc2=O)ccc1CCN1C[C@@H]2[C@H](N)[C@@H]2C1 [Compound 104] | ≥ 1 | ≥ 1 | –
CC(C)(N)C(=O)N1CCN(C(=O)Nc2ccn(-c3ccc(C(C)(C)CN4C[C@@H]5[C@@H](CN)[C@@H]5C4)cc3)c(=O)n2)CC1 [Compound 118] | ≥ 1 | ≥ 1 | –
CC(C)(N)C(=O)N1CCN(C(=O)Nc2ccn(-c3ccc(C(C)(C)CN4CC5CC5(CN)C4)cc3)c(=O)n2)CC1 (centres unmarked) [Compound 119] | ≥ 1 | ≥ 1 | –
CC(C)(N)C(=O)N1CCN(C(=O)Nc2ccn(-c3cccc(CCN4C[C@H]5CNC[C@H]5C4)c3)c(=O)n2)CC1 [Compound 158] | ≥ 1 | – | –
CC(C)(N)C(=O)N1CCN(C(=O)Nc2ccn(-c3ccc(CCN4C[C@H]5CNC[C@H]5C4)cc3)c(=O)n2)CC1 [Compound 159] | ≥ 1 | ≥ 1 | –
